The supplement of paper PMC10307832

Legend:
Assay in all cases: relative viability (nuclei count vs DMSO), 5 days (fraction); higher = more cells survive
HCC-366 = test system: HCC-366
Method in brief: (§1)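 The day after seeding in 1536-well plates, lung cancer cell lines were treated by pin tool with a single drug, or with a fixed anchor-drug dose together with five library-drug doses (not always all listed) in √10 steps. After 5 days, a combined fix-and-stain solution (final 0.05% Triton X-100, 1% formaldehyde, 1 ug/ml Hoechst) was added. Nuclei counted on 4× images gave relative viability as treated counts over vehicle counts, reported as the median of duplicate plates.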

CAL-12T = test system: CAL-12T
Method in brief: as §1

NCI-H441 = test system: NCI-H441
Method in brief: as §1

COR-L 105 = test system: COR-L 105
Method in brief: as §1

NCI-H661 = test system: NCI-H661
Method in brief: as §1

NCI-H3122 = test system: NCI-H3122
Method in brief: as §1

NCI-H2009 = test system: NCI-H2009
Method in brief: as §1

NCI-H838 = test system: NCI-H838
Method in brief: as §1

COR-L23 = test system: COR-L23
Method in brief: as §1

LU99A = test system: LU99A
Method in brief: as §1

201T = test system: 201T
Method in brief: as §1

## Clc1ccc(Nc2nnc(Cc3ccncc3)c3ccccc23)cc1 [Vatalanib] + C[C@]1(O)C[C@@H](c2nc(-c3ccc4ccc(-c5ccccc5)nc4c3)c3c(N)nccn32)C1 [Linsitinib] (partner 1 µM)
HCC-366; first compound 0.04 µM
  relative viability: 0.722
HCC-366; first compound 0.1265 µM
  relative viability: 0.456
HCC-366; first compound 0.4 µM
  relative viability: 0.725
HCC-366; first compound 1.265 µM
  relative viability: 0.542
HCC-366; first compound 4 µM
  relative viability: 0.609
CAL-12T; first compound 0.04 µM
  relative viability: 0.826
CAL-12T; first compound 0.1265 µM
  relative viability: 0.787
CAL-12T; first compound 0.4 µM
  relative viability: 0.848
CAL-12T; first compound 1.265 µM
  relative viability: 0.755
CAL-12T; first compound 4 µM
  relative viability: 0.822
NCI-H441; first compound 0.04 µM
  relative viability: 0.597
NCI-H441; first compound 0.1265 µM
  relative viability: 0.515
NCI-H441; first compound 0.4 µM
  relative viability: 0.583
NCI-H441; first compound 1.265 µM
  relative viability: 0.722
NCI-H441; first compound 4 µM
  relative viability: 0.645
COR-L 105; first compound 0.04 µM
  relative viability: 0.835
COR-L 105; first compound 0.1265 µM
  relative viability: 0.87
COR-L 105; first compound 0.4 µM
  relative viability: 1.12
COR-L 105; first compound 1.265 µM
  relative viability: 0.772
COR-L 105; first compound 4 µM
  relative viability: 0.941
NCI-H661; first compound 0.04 µM
  relative viability: 0.59
NCI-H661; first compound 0.1265 µM
  relative viability: 0.477
NCI-H661; first compound 0.4 µM
  relative viability: 0.616
NCI-H661; first compound 1.265 µM
  relative viability: 0.581
NCI-H661; first compound 4 µM
  relative viability: 0.581
NCI-H3122; first compound 0.04 µM
  relative viability: 1.14
NCI-H3122; first compound 0.1265 µM
  relative viability: 0.97
NCI-H3122; first compound 0.4 µM
  relative viability: 0.961
NCI-H3122; first compound 1.265 µM
  relative viability: 1.02
NCI-H3122; first compound 4 µM
  relative viability: 1.02
NCI-H2009; first compound 0.04 µM
  relative viability: 1.16
NCI-H2009; first compound 0.1265 µM
  relative viability: 1.04
NCI-H2009; first compound 0.4 µM
  relative viability: 1.3
NCI-H2009; first compound 1.265 µM
  relative viability: 1.16
NCI-H2009; first compound 4 µM
  relative viability: 1.18
NCI-H838; first compound 0.04 µM
  relative viability: 1.01
NCI-H838; first compound 0.1265 µM
  relative viability: 0.994
NCI-H838; first compound 0.4 µM
  relative viability: 1.15
NCI-H838; first compound 1.265 µM
  relative viability: 0.932
NCI-H838; first compound 4 µM
  relative viability: 0.976
COR-L23; first compound 0.04 µM
  relative viability: 0.978
COR-L23; first compound 0.1265 µM
  relative viability: 0.943
COR-L23; first compound 0.4 µM
  relative viability: 1.08
COR-L23; first compound 1.265 µM
  relative viability: 0.811
COR-L23; first compound 4 µM
  relative viability: 0.922
LU99A; first compound 0.04 µM
  relative viability: 0.545
LU99A; first compound 0.1265 µM
  relative viability: 0.585
LU99A; first compound 0.4 µM
  relative viability: 0.558
LU99A; first compound 1.265 µM
  relative viability: 0.534
LU99A; first compound 4 µM
  relative viability: 0.49
201T; first compound 0.04 µM
  relative viability: 1.02
201T; first compound 0.1265 µM
  relative viability: 1.04
